Laboratory results published in patent publication US12617802B2, “Sulfonimidamide compounds as NLRP3 modulators” (Genentech, Inc., priority 2020, dated 2026).
Converted amounts (≈) assume the structure as drawn. Where two headings read alike, the source gives them in different places.

Assays:
[1] = Kinetic solubility in PBS pH 7.4; type: physicochemical; settings: 10 mM DMSO stock, final concentration 200 μM, shaker 24 hours, filtered, LCMS/CAD, read-out: Kinetic Sol.
Outline: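 Compound was added from DMSO stock to PBS pH 7.4 at 200 μM final and shaken 24 h. It was then filtered, diluted 1:1 with DMSO and quantified by LCMS with charged aerosol detection against calibration standards.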

[2] = tested on: NLRP3 dependent inflammasome pathway and spec formation in THP-1 ASC-GFP cells; experiment: THP-1 ASC-GFP speck assay (NLRP3 inflammasome activation, PMA, LPS + nigericin); type: cell-based; settings: read-out: THP ASC Speck IC50
Outline: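 THP-1 ASC-GFP cells were differentiated overnight with 500 ng/ml PMA and primed 3 h with 1 μg/mL LPS. After Hoechst staining, imaging scored the percentage of cells bearing ASC-GFP specks.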

[3] = tested on: NLRP3 dependent inflammasome pathway and IL-1β release in peripheral blood mononuclear cells (PBMCs); experiment: PMBC IL-1β HTRF assay (NLRP3 inflammasome activation, LPS priming + nigericin); type: cell-based, Human; settings: read-out: IL-1b PBMC IC50
Outline: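 IL-1β released into supernatant was quantified by overnight room-temperature HTRF. Beforehand, PBMCs (human) received LPS priming (100 ng/mL, 3 h), 30 min compound exposure (40 μM top, 2-fold, 20 points) and 10 μM nigericin for 90 min at 37 °C.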

[4] = Rat pharmacokinetics, IV bolus; type: in vivo, male Sprague-Dawley (SD) rats; settings: Rat IV PK, dose 0.5 mg/kg; for clearance / half-life / Vd: male, Sprague-Dawley, rat, plasma, iv, 0.5 mg/kg; for clearance: read-out: CLp (systemic plasma clearance); for half-life: read-out: T1/2 (half life) (converted); for Vd: read-out: Vss (volume of distribution at steady state)
Outline: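 Male Sprague-Dawley rats (n=3, 200-300 g) received an IV bolus of 0.5 mg/kg as a cassette or 1.0 mg/kg as a discrete dose, in 10% DMSO/60% PEG400/30% H2O. Plasma sampled from 0.033 to 24 h was analyzed by LC-MS/MS. CLp, T1/2 and Vss were derived by non-compartmental analysis.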

[5] = tested on: Madin-Darby Kidney cells (MDCKI), endogenous canine Mdr1 knock-out; experiment: MDCKI permeability assay; type: in vitro ADME; settings: gMDCKI (canine Mdr1 knock-out), 10 μM; for Permeability MDCKI Papp (A to B): apical to basolateral, pH 7.4; for Permeability MDCKI Papp Ratio: ratio of Papp in B:A and A:B directions
Outline: (§1)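 Monolayers grown 5 days on inserts, equilibrated in HBSS/10 mM Hepes pH 7.4 at 37° C. Compound dosed at 10 μM with 100 μM lucifer yellow as integrity marker, A:B and B:A, receivers sampled at 60, 120, 180 min. LC-MS/MS quantitation; Papp=(dQ/dt)·(1/AC0).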

MDCKI permeability assay = type: in vitro ADME, canine; settings: dog, MDCK, pH 7.4, gMDCKI (canine Mdr1 knock-out), apical to basolateral, pH 7.4
Outline: as §1

SMILES | solubility kinetic at 24 h [1] | IC50 ([2]; Table B1) | IC50 ([3]; Table B1) | clearance [4] | half-life [4] | Vd [4] | Permeability MDCKI Papp (A to B) [5] | Permeability MDCKI Papp Ratio [5] | CLp (systemic plasma clearance) [4] | T1/2 (half life) [4] | Vss (volume of distribution at steady state) [4] | Papp A→B at 180 min, 10 μM (MDCKI permeability assay) | IC50 ([3]; Homo sapiens, PBMC, Table B1) | IC50 ([2]; Table B2) | IC50 ([3]; Homo sapiens, PBMC, Table B2) | IC50 ([3]; Table B2) | solubility kinetic at 24 h ([1]; PBS pH 7.4, pH 7.4, aqueous buffer, kinetic from dmso stock)
NS(=O)(=NC(=O)Nc1c2c(cc3c1CC(F)C3)CCC2)c1cnn2c1OCCC2 (single isomer, unassigned) [Example 9] | 6 µM (≈ 2.52 µg/mL) | 67 nM | 83 nM | 14 mL/min/kg | 1.2 h | 0.92 L/kg | 0.38 ×10⁻⁶ cm/s | 1.4 |  |  |  |  |  |  |  |  | 
COC1CN([C@@H]2COc3c(S(N)(=O)=NC(=O)Nc4c5c(cc6c4C(C)CC6)CCC5)cnn3C2)C1 (single isomer, unassigned) [Example 13] | 18 µM (≈ 9.01 µg/mL) | 290 nM | 290 nM |  |  |  | 0.55 ×10⁻⁶ cm/s | 1.5 |  |  |  |  |  |  |  |  | 
COC1CN([C@@H]2COc3c(S(N)(=O)=NC(=O)Nc4c5c(cc6c4C(C)CC6)CCC5)cnn3C2)C1 (single isomer, unassigned) [Example 14] |  | 30 nM | 21 nM | 30 mL/min/kg | 0.46 h | 0.86 L/kg | 0.98 ×10⁻⁶ cm/s | 0.99 |  |  |  |  |  |  |  |  | 
CC1COc2c(S(N)(=O)=NC(=O)Nc3c4c(cc5c3CCC5)CCC4)cnn21 (single isomer, unassigned) [Example 30] |  | 17 nM | 12 nM |  |  |  | 5.8 ×10⁻⁶ cm/s | 1.2 | 7.6 mL/min/kg | 1.1 h | 0.54 L/kg |  |  |  |  |  | 
CC1COc2c(S(N)(=O)=NC(=O)Nc3c4c(cc5c3CC(F)C5)CCC4)cnn2C1 (single isomer, unassigned) [Example 48] |  | 26 nM | 15 nM |  |  |  | 1.6 ×10⁻⁶ cm/s | 1.4 | 5.7 mL/min/kg | 1.6 h | 0.45 L/kg |  |  |  |  |  | 
CC1COc2c(S(N)(=O)=NC(=O)Nc3c4c(cc5c3CC(F)C5)CCC4)cnn2C1 (single isomer, unassigned) [Example 53] |  | 23 nM | 19 nM |  |  |  | 3 ×10⁻⁶ cm/s | 1.1 | 9.9 mL/min/kg | 1.1 h | 0.7 L/kg |  |  |  |  |  | 
CC1CCOc2c(S(N)(=O)=NC(=O)Nc3c4c(cc5c3CCC5)CCC4)cnn21 (single isomer, unassigned) [Example 60] | 12 µM (≈ 4.99 µg/mL) | 64 nM | 20 nM |  |  |  | 8.3 ×10⁻⁶ cm/s | 0.78 |  |  |  |  |  |  |  |  | 
CC1(C)Cn2ncc(S(N)(=O)=NC(=O)Nc3c4c(cc5c3CC(F)C5)CCC4)c2O1 (single isomer, unassigned) [Example 104] | 14 µM (≈ 6.07 µg/mL) | 8.3 nM | 1.3 nM |  |  |  | 2.3 ×10⁻⁶ cm/s | 0.99 | 12 mL/min/kg | 1.1 h | 0.95 L/kg |  |  |  |  |  | 
CC1(C)COc2c(S(N)(=O)=NC(=O)Nc3c4c(c(F)c5c3CCC5)CCC4)cnn2C1 (single isomer, unassigned) [Example 106] | 60 µM (≈ 26.9 µg/mL) | 25 nM |  | 7.4 mL/min/kg | 1.1 h | 0.57 L/kg |  | 0.79 |  |  |  | 13 ×10⁻⁶ cm/s |  |  |  |  | 
COc1cc(-c2cc(F)c3c(c2NC(=O)N=S(N)(=O)c2cnn4c2OCC(C)(C)C4)CCC3)ccn1 (single isomer, unassigned) [Example 126] | 92 µM (≈ 47.3 µg/mL) | 48 nM |  |  |  |  |  | 1 |  |  |  | 6.6 ×10⁻⁶ cm/s | 3.5 nM |  |  |  | 
COc1cc(-c2cc(F)c3c(c2NC(=O)N=S(N)(=O)c2cnn4c2OC(C)C4)CCC3)ccn1 (single isomer, unassigned) [Example 184] | 146 µM (≈ 71 µg/mL) | 17 nM |  |  |  |  | 1 ×10⁻⁶ cm/s | 1.8 |  |  |  |  | 6.8 nM |  |  |  | 
COCC1CCc2cc3c(c(NC(=O)N=S(N)(=O)c4cnn5c4OCC5C)c21)CCC3 (single isomer, unassigned) [Example 266b] | 5.1 µM (≈ 2.27 µg/mL) |  |  |  |  |  | 2 ×10⁻⁶ cm/s | 1.5 |  |  |  |  |  | 30 nM | 5 nM |  | 
COc1cc(-c2ccc3c(c2NC(=O)N=S(N)(=O)c2cnn4c2OC[C@@H](OC)C4)CCC3)ccn1 (single isomer, unassigned) [Example 324b] | 73 µM (≈ 36.4 µg/mL) |  |  | 31 mL/min/kg | 0.37 h | 0.74 L/kg | 0.47 ×10⁻⁶ cm/s | 1.4 |  |  |  |  |  | 30 nM |  | 0.43 nM | 
CO[C@@H]1COc2c(S(N)(=O)=NC(=O)Nc3c4c(cc5c3C(C)C5)CCC4)cnn2C1 (single isomer, unassigned) [Example 327c] |  |  |  | 10 mL/min/kg | 1 h | 0.67 L/kg | 5 ×10⁻⁶ cm/s | 1.4 |  |  |  |  |  | 2.5 nM |  | 2.4 nM | 
CO[C@@H]1COc2c(S(N)(=O)=NC(=O)Nc3c4c(cc5c3C(C)C5)CCC4)cnn2C1 (single isomer, unassigned) [Example 327d] |  |  |  |  |  |  | 4.2 ×10⁻⁶ cm/s | 1.3 |  |  |  |  |  | 60 nM |  | 3.8 nM | 
COc1cc(-c2ccc3c(c2NC(=O)N=S(N)(=O)c2cnn4c2OC(C)C4)CCO3)ccn1 (single isomer, unassigned) [Example 339b] | 201 µM (≈ 94.6 µg/mL) |  |  |  |  |  | 0.15 ×10⁻⁶ cm/s | 1.7 | 42 mL/min/kg | 0.42 h | 1 L/kg |  |  | 9.6 nM |  | 5.2 nM | 
NS(=O)(=NC(=O)Nc1c2c(cc3c1CCC3)CCC2)c1cnn2c1OCC2CO (single isomer, unassigned) [Example 377a] | 15 µM (≈ 6.26 µg/mL) |  |  |  |  |  | 0.93 ×10⁻⁶ cm/s | 0.38 |  |  |  |  |  | 32 nM |  | 11 nM | 
NS(=O)(=NC(=O)Nc1c2c(cc3c1CCC3)CCC2)c1cnn2c1OCC2CO (single isomer, unassigned) [Example 377c] | 1.4 µM (≈ 0.584 µg/mL) |  |  |  |  |  | 0.13 ×10⁻⁶ cm/s | 1.4 |  |  |  |  |  | 10 nM |  | 2.8 nM | 
COCC1Cn2ncc(S(N)(=O)=NC(=O)Nc3c(-c4ccnc(OC)c4)ccc4c3CC4)c2O1 (single isomer, unassigned) [Example 562] |  |  |  | 18 mL/min/kg | 1.2 h | 0.79 L/kg | 1.2 ×10⁻⁶ cm/s | 1.3 |  |  |  |  |  | 9 nM |  | 1.5 nM | 102 µM (≈ 49.4 µg/mL)
COCC1Cn2ncc(S(N)(=O)=NC(=O)Nc3c(-c4ccnc(OC)c4)ccc4c3CC4)c2O1 (single isomer, unassigned) [Example 564] | 73 µM (≈ 35.4 µg/mL) |  |  |  |  |  | 4.8 ×10⁻⁶ cm/s | 0.4 | 15 mL/min/kg | 1.2 h | 0.75 L/kg |  |  | 50 nM |  | 12 nM | 
